Values belong to the compound of their own block, whether it stands above or below them.
How the values were obtained:
[1] = molecular target: T1, Alpha-1A adrenergic receptor (Homo sapiens, UniProt P35348); experiment: Binding affinity was tested on human Alpha-1A adrenergic receptor
T1 sequence (P35348 whole entry): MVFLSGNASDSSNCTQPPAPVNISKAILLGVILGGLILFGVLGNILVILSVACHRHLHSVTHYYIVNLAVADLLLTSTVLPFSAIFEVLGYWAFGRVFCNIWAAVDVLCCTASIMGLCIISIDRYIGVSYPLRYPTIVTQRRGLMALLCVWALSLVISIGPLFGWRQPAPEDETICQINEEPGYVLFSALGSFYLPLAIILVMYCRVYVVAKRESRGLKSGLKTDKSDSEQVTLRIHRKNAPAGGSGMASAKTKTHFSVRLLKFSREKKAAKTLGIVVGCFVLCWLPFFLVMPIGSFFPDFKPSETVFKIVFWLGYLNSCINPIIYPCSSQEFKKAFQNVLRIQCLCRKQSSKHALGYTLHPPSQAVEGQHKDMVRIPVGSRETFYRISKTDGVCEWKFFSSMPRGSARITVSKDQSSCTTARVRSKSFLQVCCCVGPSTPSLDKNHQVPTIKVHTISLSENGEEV

[2] = test system: Canis familiaris; experiment: 50% reduction in intraurethral pressure (IUP) in response to hypogastric nerve stimulation or agonist (phenylephrine or norepinephrine) administration in anesthetized dog; type: functional; details: Canis lupus familiaris; read-out: ID50 (the source's name)
[3] = test system: Canis familiaris; experiment: 50% reduction in agonist induced pressor response in anesthetized dog; type: functional; details: Canis lupus familiaris; read-out: ID50 (the source's name)
[4] = molecular target: T2, Alpha-1B adrenergic receptor (Homo sapiens, UniProt P35368); experiment: Binding affinity was tested on human Alpha-1B adrenergic receptor
T2 sequence (P35368 whole entry): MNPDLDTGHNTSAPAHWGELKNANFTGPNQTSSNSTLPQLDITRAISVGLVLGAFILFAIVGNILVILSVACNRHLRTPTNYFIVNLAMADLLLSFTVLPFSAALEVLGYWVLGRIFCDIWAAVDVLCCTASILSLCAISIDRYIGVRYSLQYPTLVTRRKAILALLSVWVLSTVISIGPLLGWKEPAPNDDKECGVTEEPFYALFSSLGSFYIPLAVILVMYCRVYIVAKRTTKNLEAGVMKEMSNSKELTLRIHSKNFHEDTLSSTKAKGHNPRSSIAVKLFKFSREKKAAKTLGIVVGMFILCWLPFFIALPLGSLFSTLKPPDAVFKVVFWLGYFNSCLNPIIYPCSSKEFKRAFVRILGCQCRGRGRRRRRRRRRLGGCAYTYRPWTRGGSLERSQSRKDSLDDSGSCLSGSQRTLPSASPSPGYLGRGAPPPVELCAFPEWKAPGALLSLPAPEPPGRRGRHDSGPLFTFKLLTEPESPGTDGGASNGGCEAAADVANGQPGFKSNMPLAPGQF

[5] = molecular target: T3, Alpha-1D adrenergic receptor (Homo sapiens, UniProt P25100); experiment: Binding affinity was tested on human Alpha-1D adrenergic receptor
T3 sequence (P25100 whole entry): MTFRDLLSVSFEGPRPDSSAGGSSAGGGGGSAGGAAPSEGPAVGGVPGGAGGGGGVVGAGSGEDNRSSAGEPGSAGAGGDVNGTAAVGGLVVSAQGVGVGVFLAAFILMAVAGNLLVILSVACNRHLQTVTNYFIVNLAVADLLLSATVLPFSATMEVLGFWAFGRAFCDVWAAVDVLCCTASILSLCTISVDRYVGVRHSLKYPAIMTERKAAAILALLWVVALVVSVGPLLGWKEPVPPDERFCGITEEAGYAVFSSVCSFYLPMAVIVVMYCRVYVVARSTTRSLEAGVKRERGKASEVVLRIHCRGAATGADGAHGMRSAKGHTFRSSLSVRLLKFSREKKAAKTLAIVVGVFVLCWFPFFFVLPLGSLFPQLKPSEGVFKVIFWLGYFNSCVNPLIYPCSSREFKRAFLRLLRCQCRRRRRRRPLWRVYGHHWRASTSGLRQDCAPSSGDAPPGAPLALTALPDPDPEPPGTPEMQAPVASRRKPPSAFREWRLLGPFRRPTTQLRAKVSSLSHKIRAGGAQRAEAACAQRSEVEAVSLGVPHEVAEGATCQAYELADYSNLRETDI

[6] = Ratio of intraurethral pressure to that of pressor response in dog.; type: functional
[7] = molecular target: T4, 3-oxo-5-alpha-steroid 4-dehydrogenase 2 (Homo sapiens, UniProt P31213); experiment: Binding affinity for human 5-alpha reductase 2 isozyme
T4 sequence (P31213 whole entry): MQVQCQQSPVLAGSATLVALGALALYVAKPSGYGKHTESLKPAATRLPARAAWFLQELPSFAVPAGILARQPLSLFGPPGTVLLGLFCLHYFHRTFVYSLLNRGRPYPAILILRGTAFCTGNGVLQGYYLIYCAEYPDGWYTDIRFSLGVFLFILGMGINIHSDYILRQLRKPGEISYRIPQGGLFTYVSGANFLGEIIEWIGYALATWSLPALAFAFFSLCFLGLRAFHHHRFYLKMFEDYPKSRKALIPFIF

[8] = molecular target: T5, 3-oxo-5-alpha-steroid 4-dehydrogenase 1 (Homo sapiens, UniProt P18405); experiment: Binding affinity for human 5 alpha reductase 1 isozyme
T5 sequence (P18405 whole entry): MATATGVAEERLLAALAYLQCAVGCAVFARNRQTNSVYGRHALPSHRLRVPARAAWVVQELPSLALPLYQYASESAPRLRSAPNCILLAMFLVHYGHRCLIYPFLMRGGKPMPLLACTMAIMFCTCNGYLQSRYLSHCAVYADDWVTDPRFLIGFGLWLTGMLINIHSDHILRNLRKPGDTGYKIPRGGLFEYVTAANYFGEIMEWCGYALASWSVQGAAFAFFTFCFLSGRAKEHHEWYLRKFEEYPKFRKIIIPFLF

[9] = molecular target: T6, Steroid 5-alpha-reductase (Rattus norvegicus, UniProt P24008+P31214); experiment: (§1) Binding affinity on rat 5-alpha reductase-1 isozyme; type: protein assay
T6 sequence (P24008 whole entry): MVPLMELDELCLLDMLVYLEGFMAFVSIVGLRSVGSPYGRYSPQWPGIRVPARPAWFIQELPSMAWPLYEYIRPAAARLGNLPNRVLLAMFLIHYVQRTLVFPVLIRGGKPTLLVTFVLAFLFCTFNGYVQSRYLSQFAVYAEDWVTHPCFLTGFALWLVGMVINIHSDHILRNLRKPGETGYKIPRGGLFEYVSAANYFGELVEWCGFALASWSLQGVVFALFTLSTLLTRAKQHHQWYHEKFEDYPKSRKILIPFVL
T6 sequence (P31214 whole entry): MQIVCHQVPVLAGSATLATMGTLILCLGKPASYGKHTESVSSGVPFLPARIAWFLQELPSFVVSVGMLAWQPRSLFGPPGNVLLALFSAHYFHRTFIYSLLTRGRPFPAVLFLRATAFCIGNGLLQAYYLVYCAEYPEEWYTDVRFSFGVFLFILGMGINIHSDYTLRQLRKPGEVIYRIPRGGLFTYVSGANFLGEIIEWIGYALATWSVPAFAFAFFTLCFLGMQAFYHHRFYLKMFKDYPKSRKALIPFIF

[10] = molecular target: T7, 3-oxo-5-alpha-steroid 4-dehydrogenase 1 (Rattus norvegicus, UniProt P24008); experiment: as §1
T7 sequence (P24008 whole entry): T6 sequence (P24008 whole entry)

[11] = molecular target: T8, 3-oxo-5-alpha-steroid 4-dehydrogenase 2 (Rattus norvegicus, UniProt P31214); experiment: Binding affinity on rat 5-alpha reductase-2 isozyme
T8 sequence (P31214 whole entry): T6 sequence (P31214 whole entry)

[12] = molecular target: T5, 3-oxo-5-alpha-steroid 4-dehydrogenase 1; experiment: Inhibitory concentration on human 5-alpha reductase 1 isozyme
[13] = In vivo dose (iv) for 50% inhibition of norepinephrine-mediated contraction of proximal urethra (ID50) with the dose (iv) for 25% reduction in systolic blood pressure (ED25) in anesthetized dogs; type: functional
[14] = Dose (iv) for 20% reduction of mean blood pressure in rat (ID20) with the dose for 50% inhibition of norepinephrine-mediated contraction of proximal urethra (ID50) in cat; type: functional
[15] = molecular target: T9, Alpha-1B adrenergic receptor (Rattus norvegicus, UniProt P15823); experiment: Binding affinity was tested on CEC-pretreated rat liver Alpha-1B adrenergic receptor
T9 sequence (P15823 whole entry): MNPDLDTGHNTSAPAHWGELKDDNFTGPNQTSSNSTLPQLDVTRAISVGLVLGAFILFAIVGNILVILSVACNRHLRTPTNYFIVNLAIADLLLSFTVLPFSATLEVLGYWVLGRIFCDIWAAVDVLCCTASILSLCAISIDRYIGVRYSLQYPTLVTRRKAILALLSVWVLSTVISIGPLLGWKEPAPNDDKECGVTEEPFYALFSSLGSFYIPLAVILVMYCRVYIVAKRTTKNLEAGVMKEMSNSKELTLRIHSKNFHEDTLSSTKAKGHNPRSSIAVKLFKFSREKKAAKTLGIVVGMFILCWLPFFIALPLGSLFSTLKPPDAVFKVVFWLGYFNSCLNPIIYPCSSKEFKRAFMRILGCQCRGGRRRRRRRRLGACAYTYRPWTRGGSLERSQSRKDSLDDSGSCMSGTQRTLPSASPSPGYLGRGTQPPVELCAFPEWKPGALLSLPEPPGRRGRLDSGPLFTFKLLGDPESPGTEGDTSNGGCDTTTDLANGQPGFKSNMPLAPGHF

[16] = molecular target: T10, Alpha-1A adrenergic receptor (Rattus norvegicus, UniProt P43140); experiment: Binding affinity was tested on CEC-pretreated rat hippocampus Alpha-1A adrenergic receptor; type: tissue-based
T10 sequence (P43140 whole entry): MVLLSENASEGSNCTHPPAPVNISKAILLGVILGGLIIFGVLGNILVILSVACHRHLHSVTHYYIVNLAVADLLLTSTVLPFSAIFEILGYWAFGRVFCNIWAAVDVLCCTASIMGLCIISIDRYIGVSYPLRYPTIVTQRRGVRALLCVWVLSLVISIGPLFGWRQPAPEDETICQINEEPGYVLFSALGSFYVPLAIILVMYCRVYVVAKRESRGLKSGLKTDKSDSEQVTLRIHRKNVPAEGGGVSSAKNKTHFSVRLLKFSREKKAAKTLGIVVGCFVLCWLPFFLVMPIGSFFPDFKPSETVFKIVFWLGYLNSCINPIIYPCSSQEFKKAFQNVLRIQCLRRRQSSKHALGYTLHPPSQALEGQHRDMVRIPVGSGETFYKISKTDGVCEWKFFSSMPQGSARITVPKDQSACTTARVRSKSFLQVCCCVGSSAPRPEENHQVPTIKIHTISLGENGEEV

IC50 [7]: < 0.1 nM
Ki [8]: 0.2 nM
Compound: C[C@]12CCC(=O)C(Cl)=C1NCC1C2CC[C@@]2(C)C1CC[C@@H]2C(=O)Nc1cc(C(F)(F)F)ccc1C(F)(F)F (some centres undefined)

Ki [9]: 1200 nM
Compound: C[C@]12CCC(C(=O)O)=CC1=CCc1cc(Cl)ccc12

Ki [10]: 8 nM
Ki [11]: 10000 nM
Compound: CN1C(=O)CC[C@@H]2c3ccc(Cl)cc3CC[C@H]21 [BEXLOSTERIDE]

Ki [12]: > 2500 nM
Compound: O=C(O)c1cc2cc(OCc3ccccc3)ccc2[nH]1

More lines, now with the values behind:

Compound: COc1ccc(CCN2CCC(c3nc(COCC(F)(F)F)c(-c4ccc(F)cc4)o3)CC2)cc1S(N)(=O)=O
Ki [1]: 0.2 nM
ED50 [2]: 0.013 mg/kg
ED50 [3]: 7.25 mg/kg
Ki [4]: 15.8 nM
Ki [5]: 25.1 nM
Ratio [6]: 550

Compound: CC(C)(C)NC(=O)[C@H]1CC[C@H]2[C@@H]3CC[C@H]4NC(=O)C=C[C@]4(C)[C@H]3CC[C@]12C [FINASTERIDE]
Ki [8]: 150 nM

Compound: COc1ccccc1N1CCN(CCCNC(=O)c2ccccc2OCc2ccccc2)CC1
Ratio [13]: 16

Compound: NC(=O)c1ccnc(NCCCN2CCN(c3cccc(Cl)c3)CC2)n1
Ratio [14]: 18

Compound: COc1ccccc1N1CCN(CCNC(=O)c2cccc3c(=O)c(C)c(-c4ccccc4)oc23)CC1
IC50 [15]: 79 nM
IC50 [16]: 14 nM
Ratio [13]: 14

Compound: COc1ccccc1N1CCN(CCCNc2nccc(C(N)=O)n2)CC1
Ratio [14]: 31

Reference: ChEMBL document CHEMBL1129998, “Pharmacological options in the treatment of benign prostatic hyperplasia” (J Med Chem, 1997)
